Reference: US20070117203A1, “Modulation of stem and progenitor cell growth by oscillatory fluid flow” (priority 2005, published 2007)

System: Marrow Stromal Cells (MSCs)
Experiment: Intracellular calcium response of MSCs to oscillatory fluid flow in the presence of calcium channel blockers
Settings: control 67.1±11.2
Protocol: Calcium Imaging: Intracellular levels of Ca^2+ were quantified using a ratiometric imaging technique with the Ca^2+ sensitive dye Fura-2 Acetoxymethyl ester (Fura-2 AM). […] The ratio of the emission intensities F340/F380 is a quantitative measurement of intracellular calcium [Ca^2+]i.
Cells were cultured on UV transparent quartz slides for 3 days. Prior to exposure to OFF, cells were washed with PBS, incubated with 10 μM Fura-2 AM in A-MEM and 2% FBS for 30 min at 37° C., and then washed again with PBS. Following Fura-2 loading, the slides were mounted in a parallel plate flow chamber, and then fixed to the stage of a Nikon TE300 epi-fluorescent microscope (Technical Instruments SF, Burlingame, Calif.). The setup was left undisturbed for 30 min, during which the cells were perfused with media at 0.05 ml/min. Cells were then subjected to 3 minutes of OFF at 1 Hz with peak shear stress of 20 dynes/cm^2. […] Ratio images were recorded and analyzed using image analysis software (Metafluor; Universal Imaging, West Chester, Pa.). […]
Data analysis: Calcium imaging data was analyzed using the Rainflow cycle counting numerical procedure. This method identifies oscillations in the time history data and is used to quantify [Ca^2+]i responses from background noise. Calcium imaging data is expressed as the fraction of cells responding i SE and mean change in [Ca^2+]i±SE. […]

Structure (SMILES)	percentage of cells that responded to OFF with a change in intracellular calcium (50 nM, empties intracellular calcium stores, significant decrease (p<0.05)) [%]	percentage of cells that responded to OFF with a change in intracellular calcium (10 μM, stretch activated channel blocker, not different from control) [%]
C/C=C(/C)C(=O)O[C@H]1C(C)=C2[C@H]([C@@H]1OC(=O)CCCCCCC)[C@@](C)(OC(C)=O)C[C@H](OC(=O)CCC)[C@@]1(O)[C@H]2OC(=O)[C@@]1(C)O [Thapsigargin]	0±0	–
[Cl][Gd]([Cl])[Cl] [gadolinium chloride]	–	61.1±14.7
